According to a melting point compilation (Tetko et al.):

Row | melting point [°C] | SMILES
1 | -78 | CCCCC(CC)COC(=O)CCCCCCCC(=O)OCC(CC)CCCC (stereo not given)
2 | -78.5 | CC(=O)OCCC(C)C
3 | 35 | Cc1nn(C)c(C)c1Br
4 | 131 to 134 | NC(=NO)c1ccc(Cl)cc1
5 | 181 to 183 | Cc1c(C(=O)c2ccccc2C(=O)O)sc2ccccc12
6 | 154 | Cc1nc(-c2ccc(C#N)cc2)cs1
7 | 179 to 180 | CCOC(=O)NN(C(=O)OCC)c1c(-c2ccccc2)nc2n1CCS2
8 | 50 | C=CCOC1(C#Cc2ccccc2)Cc2ccccc21 (stereo not given)
9 | 299 | Cn1ncc2c(NCCOC(=O)c3cc([N+](=O)[O-])cc([N+](=O)[O-])c3)ncnc21
10 | 71 to 72 | N#Cc1ccnc(Cl)c1
11 | 178 to 180 | COc1ccc(-n2c(S)nnc2-c2ccc(OC(F)(F)F)cc2)cc1
12 | 206 to 207 | NNC(=O)c1csc(CS(=O)(=O)c2ccc(Cl)cc2)n1
13 | 137 | COC(=O)[C@@H](N)Cc1ccc(O)cc1
14 | 94 to 95 | Cn1cc(Br)c(CO)n1
15 | 80 to 85 | OC1(Cc2ccccc2)CCNCC1
16 | 58 | O=C(OCC(=O)N1CCCC1)c1ccccc1
17 | 146 to 148 | COC(=O)N/C=C/c1ccccc1[N+](=O)[O-]
18 | 190 to 195 | Cc1cnc(N)c([N+](=O)[O-])c1
19 | 183 | CC(=O)N1CCN(c2ccc(O)cc2)CC1
20 | 95 | Cc1cccc(NC(=O)c2cnc(C(C)(C)C)cn2)c1
21 | 125 | O=C(O)C1=CCCc2ccccc21

Row | melting point [°C] | SMILES
22 | 80 | N#CCSc1ccc(Cl)cc1
23 | 160 to 165 | Nc1cc(Br)cnc1N
24 | 201 | O=C(O)c1coc2ccccc2c1=O
25 | 199 | CC(=O)NC(CCC(=O)O)C(=O)O (stereo not given)
26 | 130 | C1#CCOCc2ccccc2COCC#CCOCc2ccccc2COC1
27 | -73 | CCCC/C=C/CCCC
28 | 149 | COc1ncccc1C(=O)O
29 | 219 to 224 | COC(=O)c1ccc2c(C=O)c[nH]c2c1
30 | 132 | O=[N+]([O-])c1ccc2cccnc2c1
31 | 74 | CC1CCC(C)(COC(=O)c2ccc(N)cc2)C1(C)C (stereo not given)
32 | 300 | Cn1c(N)cc(=O)[nH]c1=O
33 | 132 | COc1cc(N=Nc2c(Br)cc([N+](=O)[O-])cc2[N+](=O)[O-])c(NC(C)=O)c(N(CCOC(C)=O)CCOC(C)=O)c1
34 | 198 to 200 | CC1(C)C=C(C(N)=O)C(C)(C)N1O
35 | 220 | O=[N+]([O-])c1ccc(-c2nnc3n2NC(c2ccccc2)S3)cc1 (stereo not given)
36 | 181 | CC1CS(=O)(=O)CCN1N=Cc1ccc([N+](=O)[O-])o1 (stereo not given)
37 | < 25 | CCN(CC)CCOCc1cc(Br)cc(Br)c1OC
38 | 172 to 174 | Cc1cc(C)c(C(N)=O)c(N)n1
39 | 107 | O=[N+]([O-])c1cc(C2CCCCC2)c(O)c([N+](=O)[O-])c1
40 | 188 to 190 | CSC(S)=Nc1ccc(N)cc1
41 | 167 to 168 | COC(=O)c1ccc(C(N)=NO)cc1
42 | 191 | CC(=O)Oc1c(-c2ccccc2)[nH]c2cc([N+](=O)[O-])ccc12

Row | melting point [°C] | SMILES
43 | 220 | O=C(O)CN(CCN(CC(=O)O)CC(=O)O)CC(=O)O
44 | 216 | COc1cc(C2Nn3c(nnc3-c3cccnc3)S2)ccc1O (stereo not given)
45 | 55 | COc1cc(N)cc(OC)c1
46 | -81.5 | Fc1cccc(C(F)(F)F)c1
47 | 82 to 84 | CC(=O)CCc1ccc(O)cc1
48 | 92 to 96 | C[Si](C)(C)c1ccc([Si](C)(C)C)cc1
49 | 106 to 108 | COc1ccc(C(=O)C=Cc2ccccc2)c(O)c1
50 | 128 | Brc1cccc2cn[nH]c12
51 | 190 to 193 | CNc1nnc(S)s1
52 | 140 to 143 | CC(C)n1nnc2cc(C(=O)Cl)ccc21
53 | 118 to 124 | O=C(N[C@H]1CC=CC[C@H]1C(=O)O)OCc1ccccc1 (relative stereo)
54 | 172 to 173 | COc1nsc(N)n1
55 | 99.5 | CCCCCCCCC(N)=O
56 | 84 | COc1ccc(C#N)c(F)c1F
57 | 36 to 43 | CCCCCCCCCCCCSCCCCCCCCCCCC
58 | 207 | COc1ccccc1-c1nnc2n1CN(C(C)C)CS2
59 | 197 | Oc1nc(C2CCCCC2)nn1-c1ccccc1
60 | 88 | Cc1ccc(C)c2c1COC2=O
61 | 76.8 | CC(=O)C(C)=NO
62 | 107 to 110 | CCCc1c(C(=O)O)cnn1-c1ccccc1
63 | 156 | CC(=O)c1ccc(N2C(=O)C=CC2=O)cc1

Row | melting point [°C] | SMILES
64 | 274 to 276 | CCOC(=O)C(C#N)=C(N)c1cc2cc(Br)cc(OC)c2oc1=O
65 | 66 | Cc1cc(C)c2cnn(-c3ccccc3)c2n1
66 | 130 to 132 | CN1CCOc2cc(S(=O)(=O)Cl)cnc21
67 | -140 | C=COC(C)C
68 | 66 to 70 | CN1C(=O)CN(C(=O)OC(C)(C)C)[C@@H]1C(C)(C)C
69 | 365 | Nc1ccc(S(=O)(=O)O)cc1
70 | 113 to 115 | CC1(C)CC(=O)c2cc(-c3ccccc3)n(CCc3ccccc3)c2C1
71 | 56 | O=C(c1ccccc1)c1ccc(F)c(F)c1
72 | 115 | COc1ccc(-c2csc(/C(C#N)=C\c3ccco3)n2)cc1
73 | 212 | O=C(O)c1ccc(Br)c(F)c1
74 | 56 | CC(=O)Oc1ccccc1/C=C/c1ccccc1
75 | 137 | COc1ccc(C(O)(c2ccccc2OC)c2ccc(OC)cc2OC)c(OC)c1
76 | 300 | Sc1nc2cc3c(cc2[nH]1)OCCO3
77 | 62 to 63 | O=[N+]([O-])c1cccc(OCCCCBr)c1
78 | 120 | Cc1cc(C)n(C(=O)CC#N)n1
79 | 45.5 | CC1=CC(=O)C(C(C)C)=CC1=O
80 | 61 | CCCCCCCCC(O)CCCCCCCC
81 | 41 | CCOC(N)=S
82 | 71 | COC(=O)C(=O)C1CCc2cc(OC)ccc2C1=O (stereo not given)
83 | 84 to 86 | O=Cc1ccccc1OCc1ccccc1Cl

Row | SMILES | melting point [°C]
84 | O=C1NC(=O)C(=Cc2ccc(-c3ccccc3)o2)C(=O)N1 | 270
85 | Clc1c(Cl)c(Cl)c2ccccc2c1Cl | 198
86 | CC12CCC(=O)C=C1CCC1C2CCC2(C)C(O)CCC12 (stereo not given) | 153
87 | FC(Cl)C(F)(F)F (stereo not given) | -199
88 | S=C(SSC(=S)N1CCCCC1)N1CCCCC1 | 138
89 | BrC1Cc2ccccc2C1Br (stereo not given) | 32
90 | COP(=O)(OC)OC | -46
91 | CC(C)CCCC(C)C1CCC2C3CC=C4CC(OC(=O)Cc5ccc(N(CCCl)CCCl)cc5)CCC4(C)C3CCC12C (stereo not given) | 90
92 | COP(=S)(OC)Oc1ccc([N+](=O)[O-])cc1Cl | 52.5
93 | Oc1cccc(-c2ccccc2)c1 | 78
94 | Clc1ccc(-c2cc(Cl)c(Cl)c(Cl)c2Cl)cc1 | 98
95 | COc1cc2c(cc1OC)C13CCN4CC5=CCOC6CC(=O)N2C1C6C5CC43 (stereo not given) | 178
